Calls of active or inactive are those of the source. The calls are words filed in the database; no cut-off is given here.
How the values were obtained:
HASMC [1] = experiment: Inhibition of proliferation of human aortic smooth muscle cells at a concentration of 5 uM; NE is no Effect; format: functional, cell-based
[2] = Inhibitory effect in preventing the oxidation of linoleic acid by 15-lipoxygenase at a concentration of 70 uM; format: functional
Mus musculus = experiment: Inhibition of progression of atherosclerosis in aorta after oral dosing in cholesterol fed LDL receptor knockout mice; format: functional
Oryctolagus cuniculus = experiment: Inhibition of progression of atherosclerosis in aorta after oral dosing in cholesterol fed rabbits; format: functional
HASMC [3] = experiment: Inhibition of proliferation of human aortic smooth muscle cells at a concentration of 5 uM; format: functional
[4] = Concentration required for 50% inhibition of TNF-alpha inducible Selectin E expression.
[5] = Concentration required for 50% inhibition of TNF-alpha inducible MCP-1 expression.

| inhibition [2] [%] | IC50 [4] [µM] | IC50 [5] [µM] | SMILES | inhibition (HASMC [1]) | Inhibition (Mus musculus) [%] | Inhibition (Oryctolagus cuniculus) [%] | inhibition at 5 µM (HASMC [3]) [%] |
| --- | --- | --- | --- | --- | --- | --- | --- |
| – | – | – | CC(C)(Sc1cc(C(C)(C)C)c(O)c(C(C)(C)C)c1)Sc1cc(C(C)(C)C)c(O)c(C(C)(C)C)c1 | inactive | – | – | – |
| 85 | – | – | CC(C)(Sc1cc(C(C)(C)C)c(OC(=O)CCC(=O)O)c(C(C)(C)C)c1)Sc1cc(C(C)(C)C)c(OC(=O)CCC(=O)O)c(C(C)(C)C)c1 | – | – | – | – |
| 85 | 25 | 10 | CC(C)(Sc1cc(C(C)(C)C)c(O)c(C(C)(C)C)c1)Sc1cc(C(C)(C)C)c(OC(=O)CCC(=O)O)c(C(C)(C)C)c1 [SUCCINOBUCOL] | – | 43 | 94 | ~50 |

— ChEMBL document CHEMBL1135320, “Novel phenolic antioxidants as multifunctional inhibitors of inducible VCAM-1 expression for use in atherosclerosis” (Bioorg Med Chem Lett, 2002)
